These results are taken from ChEMBL document CHEMBL5678802, “Small-molecule p21-activated kinase inhibitor PF-3758309 is a potent inhibitor of oncogenic signaling and tumor growth” (Proc Natl Acad Sci U S A, 2010).

In general, Ki refers to a measure of affinity in units of concentration, obtained from inhibition or displacement. By IC50 is commonly meant the concentration at which inhibition is half-maximal.

The subject of test [1] is HCT-116. Put plainly: Effect on phosphorylated PAK4 level in human HCT-116 cells at 1 uM incubated for 15 mins by Western blot analysis. The format is functional, cell-based. A general note: A western blot detects proteins with antibodies after separation by electrophoresis.
Test [2] has as its system HCT-116. Put plainly: Effect on phosphorylated GEF-H1 level in human HCT-116 cells at 1 uM incubated for 15 mins by Western blot analysis. It counts as functional, cell-based.
Test [3] has as its target T1, Serine/threonine-protein kinase PAK 4 (Homo sapiens, UniProt O96013). Put plainly: Inhibition of N-terminal 6His-tagged human recombinant PAK4 kinase domain (300 to 591 residues) using EVPRRKSLVGTPYWM peptide as substrate assessed as inhibition constant in presence of ATP by biochemical assay.
Test [4] addresses T1, Serine/threonine-protein kinase PAK 4. Put plainly: Inhibition of PAK4 Kinase domain (291 to 591 residues) (unknown origin) transfected in TR-293-KDG cells using GEFH1 as substrate assessed as inhibition of PAK4-dependent phosphorylation of GEFH1 at S810 residue incubated for 3 hrs by ELISA. It counts as cell-based. On the technique in general: ELISA stands for enzyme-linked immunosorbent assay.

Structures are written as SMILES. Activity calls are given as the source filed them. The rule behind the calls is not given here.

T1 sequence (O96013 whole entry, the tested form may be a part): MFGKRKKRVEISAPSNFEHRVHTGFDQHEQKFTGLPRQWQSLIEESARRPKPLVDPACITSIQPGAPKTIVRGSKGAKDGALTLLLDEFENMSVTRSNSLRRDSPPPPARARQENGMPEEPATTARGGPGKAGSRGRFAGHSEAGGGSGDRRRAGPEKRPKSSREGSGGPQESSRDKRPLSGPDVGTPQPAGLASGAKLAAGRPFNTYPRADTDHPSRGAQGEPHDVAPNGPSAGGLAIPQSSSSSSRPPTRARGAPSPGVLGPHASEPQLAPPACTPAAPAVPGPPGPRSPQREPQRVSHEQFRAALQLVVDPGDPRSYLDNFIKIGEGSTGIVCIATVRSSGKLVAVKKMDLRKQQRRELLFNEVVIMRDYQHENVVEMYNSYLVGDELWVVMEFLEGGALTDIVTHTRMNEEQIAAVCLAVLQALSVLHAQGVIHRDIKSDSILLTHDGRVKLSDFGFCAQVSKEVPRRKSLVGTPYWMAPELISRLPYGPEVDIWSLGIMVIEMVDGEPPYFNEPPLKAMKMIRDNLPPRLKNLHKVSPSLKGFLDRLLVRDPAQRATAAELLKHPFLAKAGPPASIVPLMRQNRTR

In the case of `COc1ccc(C2=NC(c3ccc(Cl)cc3)C(c3ccc(Cl)cc3)N2C(=O)N2CCNC(=O)C2)c(OC(C)C)c1` (centres undefined), the inhibition result in the test with HCT-116 [1] is “inactive”. The outcome with HCT-116 [2] was inactive.
Regarding `C[C@@H]1CN(C(=O)N2Cc3c(NC(=O)c4ccccn4)n[nH]c3C2(C)C)[C@@H](C)CN1CC1CCOCC1`, the Ki in test [3] worked out at 52 µM. Moreover, the IC50 in test [4] came out at 10 µM.
